Results reported in PMC3266904, “Biochemical Discrimination between Selenium and Sulfur 2: Mechanistic Investigation of the Selenium Specificity of Human Selenocysteine Lyase” (PLoS ONE, 2012).

Molecular target: T1, human selenocysteine lyase (hSCL) (Homo sapiens, UniProt Q96I15)
T1 construct: gene SCLY
T1 sequence (Q96I15 8-445): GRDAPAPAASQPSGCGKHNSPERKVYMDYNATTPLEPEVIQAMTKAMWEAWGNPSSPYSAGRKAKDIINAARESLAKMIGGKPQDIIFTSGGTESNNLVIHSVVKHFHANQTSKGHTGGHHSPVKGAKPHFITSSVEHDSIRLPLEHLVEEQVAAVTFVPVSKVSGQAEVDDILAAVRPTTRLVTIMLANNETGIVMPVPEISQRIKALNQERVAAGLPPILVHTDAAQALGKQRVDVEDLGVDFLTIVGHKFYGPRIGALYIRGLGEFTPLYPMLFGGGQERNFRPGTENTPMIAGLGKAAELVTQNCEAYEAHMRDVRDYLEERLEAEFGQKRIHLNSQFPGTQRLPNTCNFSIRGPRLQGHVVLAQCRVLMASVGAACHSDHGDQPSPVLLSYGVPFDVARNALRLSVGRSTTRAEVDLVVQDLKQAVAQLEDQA
Test: UV/Vis spectrum of as-isolated protein
Assay type: binding
Conditions: 120 mM Tris pH 8.5, 2 mM TCEP; covalent internal aldimine

For Cc1ncc(COP(=O)(O)O)c(C=O)c1O [PLP], the “UV/Vis spectrum of as-isolated protein” value was “the Shiff base linking the PLP cofactor to the protein exists mainly in the protonated”.
